# Results taken from patent EP0148283A1, “Novel penicillanic acid derivatives” (F. HOFFMANN-LA ROCHE & CO. Aktiengesellschaft, priority 1983, dated 1985).
# Counter-ions that a name gives are not always drawn. Like-named read-outs stand apart in the source and are kept apart here.
# What was measured:
# Experiment in all cases: In vitro antibacterial activity, MIC by broth dilution in 96-well trays
# Type in all cases: cell-based
# [1] = tested on: P.aeruginosa; settings: Pseudomonas aeruginosa
# Description: (§1) The in vitro antibacterial activity of the following compounds:
# (§2) The diluted agents are dispensed in 100 µl amounts into the wells of a 96-well tray and used immediately or frozen at -10 to -70°C until needed. Using an automated inoculator, 1.5 µl of a 10^-2 dilution of an overnight culture is added to each well of the tray. The tops of the trays are then sealed using transparent tape and incubated overnight at 37°C. The trays are examined with the aid of a viewer. The lowest concentration at which no growth is observed is considered to be the minimum inhibitory concentration (MIC). [formula] [formula] [formula] [formula] [formula] [formula] [formula] [formula] [formula] [formula] [formula]
# [2] = tested on: S. aureus; settings: Staphylococcus aureus
# Description: as §1, §2
# [3] = tested on: S. faecalis; settings: Enterococcus faecalis; S. faecalis C1
# Description: as §1, §2
# [4] = tested on: S. pneumoniae; settings: Streptococcus pneumoniae
# Description: as §1, §2
# [5] = tested on: S. pyogenes; settings: Streptococcus pyogenes
# Description: as §1, §2
# [6] = tested on: C. diversus; settings: Citrobacter koseri; C. diversus strain CDC 1663-72
# Description: as §1, §2
# [7] = tested on: C. freundii; settings: Citrobacter freundii
# Description: as §1, §2
# [8] = tested on: E. aerogenes; settings: Klebsiella aerogenes
# Description: as §1, §2
# [9] = tested on: E. cloacae; settings: Enterobacter cloacae
# Description: as §1, §2
# [10] = tested on: E. coli; settings: Escherichia coli
# Description: as §1, §2
# [11] = tested on: K. pneumoniae; settings: Klebsiella pneumoniae
# Description: as §1, §2
# [12] = tested on: P. mirabilis; settings: Proteus mirabilis
# Description: as §1, §2
# [13] = tested on: P. rettgeri; settings: Providencia rettgeri, ATCC9250; P. rettgeri strain ATCC 9250
# Description: as §1, §2
# [14] = tested on: P. vulgaris; settings: Proteus vulgaris
# Description: as §1, §2
# [15] = tested on: S. marcescens
# Description: as §1, §2
# [16] = tested on: S. schottmuelleri
# Description: as §1, §2
# [17] = tested on: S. typhi P58A; settings: Salmonella enterica
# Description: as §1, §2
structure (smiles),measurement,setting,value
"CC1(C)S[C@@H]2[C@H](N=CN3CCC(Cc4ncc[nH]4)CC3)C(=O)N2[C@H]1C(=O)O [Q, [2S-(2alpha,5alpha,6beta)]-6-[[[4-(1H-imidazol-2-yl-methyl)-1-piperidinyl]methylene]amino]-3,3-dimethyl-7-oxo-4-thia-1-azabicyclo[3.2.0]heptane-2-carboxylic acid hydrochloride]",MIC,[1]; P.aeruginosa strain 503-56,64 µg/mL
same,MIC,[1]; P.aeruginosa strain 503-820,128 µg/mL
same,MIC,[1]; P.aeruginosa strain 5700,0.125 µg/mL
same,MIC,[1]; P.aeruginosa strain 5712,> 128 µg/mL
same,MIC,[1]; P.aeruginosa strain 6148B,128 µg/mL
same,MIC,[1]; P.aeruginosa strain 8710,128 µg/mL
same,MIC,[1]; P.aeruginosa strain 8780,> 128 µg/mL
same,MIC,[1]; P.aeruginosa strain B,0.25 µg/mL
same,MIC,[1]; P.aeruginosa strain POW 151,> 128 µg/mL
same,MIC,[1]; P.aeruginosa strain Stone 130,> 128 µg/mL
same,MIC,[2]; S. aureus strain 1059B,128 µg/mL
same,MIC,[2]; S. aureus strain Giorgio,8 µg/mL
same,MIC,[2]; S. aureus strain Smith,8 µg/mL
same,MIC,[3],128 µg/mL
same,MIC,[4]; S. pneumoniae strain 6301,1 µg/mL
same,MIC,[4]; S. pneumoniae strain 6302,2 µg/mL
same,MIC,[4]; S. pneumoniae strain SC,2 µg/mL
same,MIC,[5]; S. pyogenes strain 4,1 µg/mL
same,MIC,[5]; S. pyogenes strain 503-782,128 µg/mL
"CC1(C)S[C@@H]2[C@H](N=CN3CCC(CCCn4ccnc4CO)CC3)C(=O)N2[C@H]1C(=O)O [R, [2S-(2alpha,5alpha,6beta)]-6-[[[4-[3-[2-(hydroxy-methyl)-1H-imidazol-1-yl]propyl-1-piperidinyl]-methylene]amino]-3,3-dimethyl-7-oxo-4-thia-1-azabicyclo[3.2.0]heptane-2-carboxylic acid hydrochloride 1.1 molar hydrate]",MIC,[1]; P.aeruginosa strain 503-56,> 128 µg/mL
same,MIC,[1]; P.aeruginosa strain 503-820,128 µg/mL
same,MIC,[1]; P.aeruginosa strain 5700,> 128 µg/mL
same,MIC,[1]; P.aeruginosa strain 5712,> 128 µg/mL
same,MIC,[1]; P.aeruginosa strain 6148B,128 µg/mL
same,MIC,[1]; P.aeruginosa strain 8710,> 128 µg/mL
same,MIC,[1]; P.aeruginosa strain 8780,> 128 µg/mL
same,MIC,[1]; P.aeruginosa strain B,128 µg/mL
same,MIC,[1]; P.aeruginosa strain POW 151,> 128 µg/mL
same,MIC,[1]; P.aeruginosa strain Stone 130,> 128 µg/mL
same,MIC,[2]; S. aureus strain 1059B,64 µg/mL
same,MIC,[2]; S. aureus strain Giorgio,8 µg/mL
same,MIC,[2]; S. aureus strain Smith,8 µg/mL
same,MIC,[3],128 µg/mL
same,MIC,[4]; S. pneumoniae strain 6301,1 µg/mL
same,MIC,[4]; S. pneumoniae strain 6302,1 µg/mL
same,MIC,[4]; S. pneumoniae strain SC,0.5 µg/mL
same,MIC,[5]; S. pyogenes strain 4,0.5 µg/mL
same,MIC,[5]; S. pyogenes strain 503-782,128 µg/mL
"CC1(C)S[C@@H]2[C@H](N=CN3CCCC(c4ncc[nH]4)C3)C(=O)N2[C@H]1C(=O)O (stereo partly drawn) [P, [2S-(2alpha,5alpha,6beta)]-6-[[[3-(1H-imidazol-2-yl)-1-piperidinyl]methylene]amino]-3,3-dimethyl-7-oxo-4-thia-1-azabicyclo[3.2.0]heptane-2-car-boxylic acid hydrochloride]",MIC,[1]; P.aeruginosa strain 503-56,> 128 µg/mL
same,MIC,[1]; P.aeruginosa strain 503-820,> 128 µg/mL
same,MIC,[1]; P.aeruginosa strain 5700,8 µg/mL
same,MIC,[1]; P.aeruginosa strain 5712,> 128 µg/mL
same,MIC,[1]; P.aeruginosa strain 6148B,> 128 µg/mL
same,MIC,[1]; P.aeruginosa strain 8710,> 128 µg/mL
same,MIC,[1]; P.aeruginosa strain 8780,> 128 µg/mL
same,MIC,[1]; P.aeruginosa strain B,8 µg/mL
same,MIC,[1]; P.aeruginosa strain POW 151,> 128 µg/mL
same,MIC,[1]; P.aeruginosa strain Stone 130,> 128 µg/mL
same,MIC,[2]; S. aureus strain 1059B,64 µg/mL
same,MIC,[2]; S. aureus strain Giorgio,4 µg/mL
same,MIC,[2]; S. aureus strain Smith,2 µg/mL
same,MIC,[3],64 µg/mL
same,MIC,[4]; S. pneumoniae strain 6301,1 µg/mL
same,MIC,[4]; S. pneumoniae strain 6302,1 µg/mL
same,MIC,[4]; S. pneumoniae strain SC,1 µg/mL
same,MIC,[5]; S. pyogenes strain 4,0.5 µg/mL
same,MIC,[5]; S. pyogenes strain 503-782,64 µg/mL
"CC1(C)S[C@@H]2[C@H](N=CN3CCC(CC4=NCCCN4)CC3)C(=O)N2[C@H]1C(=O)O [Compound U, [2S-(2alpha,5alpha,6beta)]-6-[[[4-[(1,4,5,6-tetrahydro-2-pyrimidinyl)methyl]-1-piperidinyl]-methylene]amino]-3,3-dimethyl-7-oxo-4-thia-1-azabicyclo[3.2.0]heptane-2-carboxylic acid hydrochloride]",MIC,[1]; P.aeruginosa strain 503-56,64 µg/mL
same,MIC,[1]; P.aeruginosa strain 503-820,> 128 µg/mL
same,MIC,[1]; P.aeruginosa strain 5700,0.5 µg/mL
same,MIC,[1]; P.aeruginosa strain 5712,> 128 µg/mL
same,MIC,[1]; P.aeruginosa strain 6148B,128 µg/mL
same,MIC,[1]; P.aeruginosa strain 8710,> 128 µg/mL
same,MIC,[1]; P.aeruginosa strain 8780,> 128 µg/mL
same,MIC,[1]; P.aeruginosa strain B,9.5 µg/mL
same,MIC,[1]; P.aeruginosa strain POW 151,> 128 µg/mL
same,MIC,[1]; P.aeruginosa strain Stone 130,> 128 µg/mL
same,MIC,[2]; S. aureus strain 1059B,> 128 µg/mL
same,MIC,[2]; S. aureus strain Giorgio,8 µg/mL
same,MIC,[2]; S. aureus strain Smith,8 µg/mL
same,MIC,[3],128 µg/mL
same,MIC,[4]; S. pneumoniae strain 6301,2 µg/mL
same,MIC,[4]; S. pneumoniae strain 6302,4 µg/mL
same,MIC,[4]; S. pneumoniae strain SC,4 µg/mL
same,MIC,[5]; S. pyogenes strain 4,4 µg/mL
same,MIC,[5]; S. pyogenes strain 503-782,> 128 µg/mL
CC1(C)S[C@@H]2[C@H](/N=C/N3CCCCCC3)C(=O)N2[C@H]1C(=O)O [Amdinocillin],MIC,[6],0.062 µg/mL
same,MIC,[7]; C. freundii strain CDC6,0.125 µg/mL
same,MIC,"[7]; C. freundii strain 8ASM, read-out: MIC",0.062 µg/mL
same,MIC,[8],128 µg/mL
same,MIC,"[8]; E. aerogenes strain 83, read-out: MIC",8 µg/mL
same,MIC,"[8]; E. aerogenes strain 503-478, read-out: MIC",4 µg/mL
same,MIC,[9]; E. cloacae strain 24,0.125 µg/mL
same,MIC,[9]; E. cloacae strain 214,0.125 µg/mL
same,MIC,[9]; E. cloacae strain 5699,0.25 µg/mL
same,MIC,[9]; E. cloacae strain 6951,16 µg/mL
same,MIC,[9]; E. cloacae strain 9295,0.25 µg/mL
same,MIC,[9]; E. cloacae strain 9570A,0.125 µg/mL
same,MIC,[9]; E. cloacae strain P99,0.062 µg/mL
same,MIC,[10]; E. coli strain 4,0.062 µg/mL
same,MIC,[10]; E. coli strain 48,0.062 µg/mL
same,MIC,[10]; E. coli strain 257,0.125 µg/mL
same,MIC,[10]; E. coli strain 387-1,0.031 µg/mL
same,MIC,[10]; E. coli strain 503-455,2 µg/mL
same,MIC,[10]; E. coli strain 5152,8 µg/mL
same,MIC,[10]; E. coli strain R-563,0.125 µg/mL
same,MIC,[11]; K. pneumoniae strain 35,0.125 µg/mL
same,MIC,[11]; K. pneumoniae strain 503-964,0.125 µg/mL
same,MIC,"[11]; K. pneumoniae strain 503-994, read-out: MIC",0.062 µg/mL
same,MIC,"[11]; K. pneumoniae strain 4964, read-out: MIC",64 µg/mL
same,MIC,[11]; K. pneumoniae strain 5096,128 µg/mL
same,MIC,"[11]; K. pneumoniae strain 8357, read-out: MIC",0.25 µg/mL
same,MIC,"[11]; K. pneumoniae strain A, read-out: MIC",0.031 µg/mL
same,MIC,"[11]; K. pneumoniae strain HE7, read-out: MIC",> 128 µg/mL
same,MIC,[12],0.125 µg/mL
same,MIC,"[12]; P. mirabilis strain 2, read-out: MIC",0.25 µg/mL
same,MIC,"[12]; P. mirabilis strain 90, read-out: MIC",0.25 µg/mL
same,MIC,"[12]; P. mirabilis strain 503-1136, read-out: MIC",2 µg/mL
same,MIC,"[12]; P. mirabilis strain 620A, read-out: MIC",64 µg/mL
same,MIC,[13],0.125 µg/mL
same,MIC,"[14]; ATCC6380, P. vulgaris strain ATCC 6380",0.031 µg/mL
same,MIC,[14]; P. vulgaris strain 100,0.5 µg/mL
same,MIC,[14]; P. vulgaris strain 101,64 µg/mL
same,MIC,[15]; S. marcescens strain S3,0.125 µg/mL
same,MIC,[15]; S. marcescens strain S147,0.125 µg/mL
same,MIC,[15]; Serratia marcescens,0.125 µg/mL
same,MIC,"[15]; Serratia marcescens, S. marcescens strain 5805, read-out: MIC",1 µg/mL
same,MIC,"[15]; Serratia marcescens, S. marcescens strain S1, read-out: MIC",0.25 µg/mL
same,MIC,"[15]; Serratia marcescens, S. marcescens strain S2, read-out: MIC",0.25 µg/mL
same,MIC,"[15]; Serratia marcescens, S. marcescens strain S4, read-out: MIC",1 µg/mL
same,MIC,"[15]; Serratia marcescens, S. marcescens strain S5, read-out: MIC",1 µg/mL
same,MIC,"[15]; Serratia marcescens, S. marcescens strain S714, read-out: MIC",0.5 µg/mL
same,MIC,[16],0.062 µg/mL
same,MIC,[17],0.062 µg/mL
"CN(C)C=Nc1nccn1CCCC1CCN(C=N[C@@H]2C(=O)N3[C@@H]2SC(C)(C)[C@@H]3C(=O)O)CC1 [S, [2S-(2alpha,5alpha,6beta)]-6-[[[4-[3-[2-[[(dimethylamino)methylene]amino]-1H-imidazol-1-yl]propyl]-1-piperidinyl]methylene]amino]-3,3-dimethyl-7-oxo-4-thia-1-azabicyclo[3.2.0]heptane-2-carboxylic acid 1.7 molar hydrochloride 2.6 molar hydrate]",MIC,[1]; P.aeruginosa strain 503-56,> 128 µg/mL
same,MIC,[1]; P.aeruginosa strain 503-820,> 128 µg/mL
same,MIC,[1]; P.aeruginosa strain 5700,> 128 µg/mL
same,MIC,[1]; P.aeruginosa strain 5712,> 128 µg/mL
same,MIC,[1]; P.aeruginosa strain 6148B,> 128 µg/mL
same,MIC,[1]; P.aeruginosa strain 8710,> 128 µg/mL
same,MIC,[1]; P.aeruginosa strain 8780,> 128 µg/mL
same,MIC,[1]; P.aeruginosa strain B,> 128 µg/mL
same,MIC,[1]; P.aeruginosa strain POW 151,> 128 µg/mL
same,MIC,[1]; P.aeruginosa strain Stone 130,> 128 µg/mL
same,MIC,[2]; S. aureus strain 1059B,64 µg/mL
same,MIC,[2]; S. aureus strain Giorgio,8 µg/mL
same,MIC,[2]; S. aureus strain Smith,8 µg/mL
same,MIC,[3],128 µg/mL
same,MIC,[4]; S. pneumoniae strain 6301,2 µg/mL
same,MIC,[4]; S. pneumoniae strain 6302,1 µg/mL
same,MIC,[4]; S. pneumoniae strain SC,0.5 µg/mL
same,MIC,[5]; S. pyogenes strain 4,0.25 µg/mL
same,MIC,[5]; S. pyogenes strain 503-782,128 µg/mL
